Assays:
[1] = system: MDA-MB-435S human breast cancer cells; experiment: MTT assay, proliferation of MDA-MB-435S cells; format: cell-based; conditions: Homo sapiens, 72 h, read-out: Cell Survival Rate IC50
Protocol: The experiments for evaluating the antineoplasmic activities of the compounds according to the present invention were carried out, and the compounds' antineoplasmic activities in vitro was evaluated by determining the inhibitory activities thereof against the proliferation of MDA-MB-435S human breast cancer cells.
The antineoplasmic activities were determined by using the MTT assay, which is based on the metabolic reduction of 3-(4,5-dimethylthylthiazol-2-yl)-2,5-diphenyl tetrazolium bromide (MTT). The dehydrogenases, which are related to NADP (niacinamide adenine dinucleotide phosphate, coenzyme) and present in mitochondrions of living cells, can reduce the yellow MTT to an insoluble, dark purple formazan. […] After the formazan is dissolved in DMSO, the optical density is determined on an ELISA Reader at the wavelength of 550/690 nm.
The adhered MDA-MB-4355 cells in logarithmic growth phase, were digested by 0.05% trypsogen, counted and formulated into a cell suspension with a medium. After counted, the suspension was inoculated on a 96-well plate with 3000 cells and 100 μl medium per well. The inoculated 96-well plate was placed overnight in an incubator at 37 with 5% CO2 to allow the cells to adhere to the wall. On the next day, the administration of the drugs started. Before the administration, into some of the control wells, each was added 20 μl of the MTT solution (5 mg/ml) without removing the medium therein. After incubated for 3 h, the absorption at A550/690 was recorded as the initial cell concentration. For the drug wells, each was added into 100 μl of medium containing 2 μl of compound solution. For the control wells which use DMSO as background control, each was also added into 100 μl of medium containing 2 μl of DMSO. In addition, each experiment was carried out with adriamycin as the positive control. Subsequently, the 96-well plate was incubated in an incubator at 37 with 5% CO2 for 72 h. each compound was tested in triplicate wells (6 μl of compound solution was put into a sterilized eppendorf centrifuge tube, then 300 μl of medium was added and mixed well, and the mixture was distributed into 3 wells respectively), and at six concentrations which form a gradient. 3 days (72 h) later, 40 μl of MTT solution (5 mg/ml) was put into each well directly (without sucking off the medium therein), and the plate was incubated in the incubator for 3 h and then taken out. The liquid in each well was sucked off, and then 100 μl of DMSO was put into each well to dissolve the crystal completely with slight shake. The absorbance of the solution in each well was determined at 550/690 nm on an ELISA Reader as the cell density after treated with the compound. The growth inhibition of compound against breast cancer cells MDA-MB-435S was represented by the cell survival rate, and IC50 was determined from the profile of cell survival rate vs compound concentration. The calculating formula was as follows: cell survival rate=[(cells+compound)A550/690/(cells+compound vector DMSO)A550/690]×100%

[2] = system: human breast cancer cells MDA-MB-435 transplanted on nude mice; experiment: Antineoplasmic activity in vivo, MDA-MB-435 transplanted tumor on nude mice; conditions: MMC 5 mg/kg, d1, i.v.
Protocol: Dosage: among 3 groups, the dosages of L538 were set at 5, 10 and 20 mg/kg as the high, middle and low dosages, respectively, administrating intravenously 3 times a week; while MMC was administrated intravenously at the first day whit a dosage of 5 mg/kg.
Animals: BALB/CA nude mice, male, 40-45 days old, body weight: 18±1 g, provided by Shanghai Institute of Materia Medica, Chinese Academy of Sciences. […] Animal number in each group: 7 in negative control group, and 4 in administration group.
The amount of inoculated cells was 5×10^6. After the transplanted tumor was formed by inoculation, it was used after passed for 3 generations in nude mice.
Experimental procedure: tumor tissue in productive phase was cut into nubs of about 1.5 mm^3. Under sterile conditions, the nubs were inoculated subcutaneously in right axillary fossa of the nude mice. The diameters of the transplanted tumors on nude mice were measured by a vernier caliper. When the tumors grew up to 100-200 mm^3, the animals were divided randomly into groups. Mice in experimental groups were administered intravenously every other day. […] The total administration duration was 3 weeks. For the positive control, MMC, Mice were administered intravenously once at the first day of a week, and the total administration duration was 3 weeks. Mice in control groups were administrated physiologic saline in equivalent amount. The diameter of the tumor and weight of mice were measured twice a week. The equation for calculating the TV (tumor volume) was as follows: TV=½×a×b^2, • wherein, a is length and b is width. RTV (relative tumor volume) was calculated based on the measured results, and the equation thereof was as follows: RTV=Vt/V0 • wherein, V0 is the tumor volume measured when the mice were grouped (i.e. d0), and Vt is the tumor volume at each measurement. The evaluation index for the antitumor activity was the relative tumor proliferation rateT/C (%).
The calculation equation was as follows: T/C(%)=(TRTV/CRTV)×100, • wherein, TRTV is the RTV of therapeutic Group and CRTV is RTV of negative control group.

| Compound | IC50 [1] [µM] | further results |
| --- | --- | --- |
| CO[C@@H](C(=O)N[C@@H](C)C(=O)NCCCOC(C)C)[C@H](O)[C@@H](O)[C@H](O)/C=C/C(C)(C)C [Compound L432b] | 21.6 |  |
| CO[C@@H](C(=O)N[C@@H](Cc1ccccc1)C(=O)NCCO)[C@H](O)[C@@H](O)[C@H](O)/C=C/C(C)(C)C [Compound L452] | 5.25 |  |
| C=CCNC(=O)[C@H](C)NC(=O)[C@H](OC)[C@H](O)[C@@H](O)[C@H](O)/C=C/C(C)(C)C [Compound L372] | 3.53 |  |
| CO[C@@]12[C@H](COC(N)=O)C3=C(C(=O)C(C)=C(N)C3=O)N1C[C@@H]1N[C@@H]12 [MMC, mitomycin, reference compound] |  | T/C (%) ([2]; P <0.05): 44.3%; TV (mm^3) d21 ([2]; d0 132 ± 52): 844 ± 308 mm^3; RTV ([2]; d21): 6.6 ± 1.6; Body Weight(g) Ultimate ([2]; initial 17.8 g): 21.7 g |
| CO[C@@H](C(=O)N[C@@H](C)C(=O)NCCOC(=O)C1CC1)[C@H](O)[C@@H](O)[C@H](O)/C=C/C(C)(C)C [Compound L444g] | 6.07 |  |
| CCCCC(CC)C(=O)OCCNC(=O)[C@H](C)NC(=O)[C@H](OC)[C@H](O)[C@@H](O)[C@H](O)/C=C/C(C)(C)C (stereo partly drawn) [Compound L502] | 2.55 |  |
| CO[C@@H](C(=O)N[C@@H](C)C(=O)NCCOC(=O)CC1CCCCC1)[C@H](O)[C@@H](O)[C@H](O)/C=C/C(C)(C)C [Compound L500c] | 1.93 |  |
| CO[C@@H](C(=O)N[C@@H](C)C(=O)NCC(=O)OC1CCCCC1)[C@H](O)[C@@H](O)[C@H](O)/C=C/C(C)(C)C [Compound L472-4] | 1.54 |  |
| CO[C@@H](C(=O)N[C@@H](C)C(=O)NCC(C)OC(=O)C1CCCCC1)[C@H](O)[C@@H](O)[C@H](O)/C=C/C(C)(C)C (stereo partly drawn) [Compound L500a] | 0.8 |  |
| CO[C@@H](C(=O)N[C@@H](C)C(=O)NCCOC(C)C)[C@H](O)[C@@H](O)[C@H](O)/C=C/C(C)(C)C [Compound L418c] | 13.9 |  |
| CO[C@@H](C(=O)N[C@@H](C)C(=O)NCCCOC1CCCCC1)[C@H](O)[C@@H](O)[C@H](O)/C=C/C(C)(C)C [Compound L472] | > 2.5 |  |
| CO[C@@H](C(=O)N[C@@H](C)C(=O)NCCOCC(C)C)[C@H](O)[C@@H](O)[C@H](O)/C=C/C(C)(C)C [Compound L432a] | 40 |  |
| CO[C@@H](C(=O)N[C@@H](C)C(=O)NCCOC(=O)OCCCc1ccccc1)[C@H](O)[C@@H](O)[C@H](O)/C=C/C(C)(C)C [Compound L538b] | 0.76 |  |
| CO[C@@H](C(=O)N[C@@H](C)C(=O)NCCOC(=O)C1CCC1)[C@H](O)[C@@H](O)[C@H](O)/C=C/C(C)(C)C [Compound L458] | 0.89 |  |
| CO[C@@H](C(=O)N[C@@H](C)C(=O)NCC(=O)NC1CCCCC1)[C@H](O)[C@@H](O)[C@H](O)/C=C/C(C)(C)C [Compound L471] | 4.79 |  |
| CO[C@@H](C(=O)N[C@@H](C)C(=O)NCCO)[C@H](O)[C@@H](O)[C@H](O)/C=C/C(C)(C)C [Compound L376] | 5.44 |  |
| CO[C@@H](C(=O)N[C@@H](C)C(=O)NCCOC(=O)C1CCCC1)[C@H](O)[C@@H](O)[C@H](O)/C=C/C(C)(C)C [Compound L472-3] | 0.72 |  |
| CO[C@@H](C(=O)N[C@@H](C)C(=O)NCCOC(=O)C(C)(C)C)[C@H](O)[C@@H](O)[C@H](O)/C=C/C(C)(C)C [Compound L460] | 3.38 |  |
| CO[C@@H](C(=O)N[C@@H](Cc1c[nH]c2ccccc12)C(=O)NCCO)[C@H](O)[C@@H](O)[C@H](O)/C=C/C(C)(C)C [Compound L491] | 5.13 |  |
| CO[C@@H](C(=O)N[C@@H](CC(C)C)C(=O)NCCO)[C@H](O)[C@@H](O)[C@H](O)/C=C/C(C)(C)C [Compound L418b] | 1.5 |  |
| CCCC[C@H](NC(=O)[C@H](OC)[C@H](O)[C@@H](O)[C@H](O)/C=C/C(C)(C)C)C(=O)NCCOC(=O)C1CCCCC1 [Compound L528c] | 2.91 |  |
